Results as given in US10143198B2, “Use of propyl propane thiosulfinate and propyl propane thiosulfonate for the prevention and reduction of parasites in aquatic animals” (Investfood, LLC, priority 2013, dated 2018).

Key:
[1] = system: Icthyobodo necator; assay: oral treatment of Ichthyobodosis in rainbow trout, PTSO administered into feed; assay type: in vivo; conditions: for % infestation High / % infestation Low / % infestation minimal / % infestation Moderate / % infestation zero: 24 hours after end of assay; for % infestation High: High = more than 50 individuals per microscope field; for % infestation Low: Low = more than 1 individual, less than 10 per field; for % infestation minimal: Minimal = only 1 individual detected; for % infestation Moderate: Moderate = 10 to 50 per field; for % infestation zero: Zero = not detected
Description: In this example, a study of oral treatments of Ichthyobodosis in rainbow trout with different concentrations of Propyl propane thiosulphonate (PTSO) administered into feed was conducted.
Rainbow trout Oncornynchus mykiss were obtained from a local fish farm and acclimatized for at least 10 days before assay in 100 l tanks with aeration in closed systems of water (15±2° C., pH 7-7.5). The natural light-dark cycle was simulated (12 h light: 12 h dark). Fish were fed twice per day with a commercial feed (EFICO, Biomar, Spain). Parasite-free fish were experimentally infested by holding the parasite-free fish 25 days in a 100 l tank that also contained fish showing high-intensity infestation (20 uninfected fish to 10 infected fish).
Fish were anaesthetized by immersion in bath with 100 ppm of Tricaine methanesulfonate until respiration became weak. A mucus sample was then taken by gently scraping the body surface after examination of a sample area of 24×32 mm. The sample was mixed with 30 μl of distilled water on a slide, cover-slipped and examined to optic microscopy (400×).
Each treatment was assayed in 20 infected fish maintained in 100 L tanks with aeration in closed systems of water. The fish received feed containing three different treatments. The first group received a diet with 100 ppm of Propyl propane thiosulphonate (PTSO), the second received a diet supplemented with 300 ppm of PTSO, and the third received a diet with 300 ppm of metronidazole. All treatments were applied during a 10 day period. In all cases, feed was supplied at 2% of total body weight per day. Simultaneously, a positive control assay (also on 20 infected fish treated identically, but without any PTSO) and negative control assay (with 20 uninfected animals) were performed. Tanks conditions were identical to those during the acclimatization period.
Throughout the assay period the fish were monitored regularly to ensure that the fish were eating the food, and to check for signs of toxicity.
Of note, infestation intensity was based on a 5-point scale, as follows: Zero equals Ichthyobodo necator not being detected in the sample; Minimal equals only 1 individual of I. necator being detected in the sample; Low equals more than 1 individual of parasite being detected in the sample, the average number per microscope field being less than 10; Moderate equals an average number of individuals per microscope field of 10 to 50; High equals an average number of individuals per microscope field of more than 50.

[2] = system: L3 larvae of Anisakis type I; conditions: 200, 300 and 500 ppm, in vitro, 36° C.
Excerpt: (§1) The objective of example 3 was to examine the activity of propyl propane thiosulphonate (PTSO) and propyl propane thiosulfinate (PTS) against L3 larvae of type I Anisakis and Hysterotylacium aduncum to explore the possible use of these compounds for prophylaxis treatments.
(§2) L3 of Anisakis type I and Hysterotylacium aduncum were collected by dissecting the fish Micromesistius poutassou (blue whiting) and Trachurus trachurus (mackerel) fished in the Cantabric sea, and selecting only larvae with a length greater than (>) 2.0 cm in the case of Anisakis, and greater than 0.8 cm for Hysterotylacium.
(§3) Larvae were axenised in antibiotic solution (Iglesias et al., 1997), introduced into polystyrene plate wells with 2 ml of sterile solution of 0.9% NaCl and the different concentrations of PTS alone, PTSO alone, and both PTS and PTSO (75, 200, 300 and 500 ppm) and then incubated at 36° C. in a 5% CO2 atmosphere. As controls, larvae were assayed without test compound under identical experimental conditions, and using only the solvent DMSO 1% (Dimethyl sulfoxide). Larvae were examined under stereoscopic microscope at 4, 8, 24, and 48 hours to test the biocidal effect of the compounds. Larvae with no mobility at all were considered dead. Each dilution was tested three times on larvae from fish captured on different days.

[3] = system: L3 larvae of Hysterotylacium aduncum; conditions: 75 ppm, in vitro, 36° C.
Excerpt: as §1, §2, §3

| SMILES | % infestation High ([1]; 100 ppm in feed for 10 days) | % infestation Low ([1]; 100 ppm in feed for 10 days) | % infestation minimal ([1]; 100 ppm in feed for 10 days) | % infestation Moderate ([1]; 100 ppm in feed for 10 days) | % infestation zero ([1]; 100 ppm in feed for 10 days) | % infestation High ([1]; 300 ppm in feed for 10 days) | % infestation Low ([1]; 300 ppm in feed for 10 days) | % infestation minimal ([1]; 300 ppm in feed for 10 days) | % infestation Moderate ([1]; 300 ppm in feed for 10 days) | % infestation zero ([1]; 300 ppm in feed for 10 days) | antiparasitic activity, infestation intensity ([1]; oral in feed) | anti-parasitic activity (mortality) [2] | anti-parasitic activity (mortality) [3] |
| --- | --- | --- | --- | --- | --- | --- | --- | --- | --- | --- | --- | --- | --- |
| CCCSS(=O)(=O)CCC [PTSO, propyl propane thiosulfonate] | 35% | 18% | 12% | 30% | 5% | 25% | 8% | 5% | 7% | 55% | significant reduction of infestation intensity | significant anti-parasitic activity | significant anti-parasitic activity |
| Cc1ncc([N+](=O)[O-])n1CCO [Metronidazole, metronidazole, reference compound] | – | – | – | – | – | 15% | 7% | 12% | 20% | 46% | – | – | – |
| CCCS[S+]([O-])CCC (centres unmarked) [PTS, propyl propane thiosulfinate] | – | – | – | – | – | – | – | – | – | – | – | significant anti-parasitic activity | significant anti-parasitic activity |
